Data taken from paper PMC6349167, “Inhibiting the urokinase‐type plasminogen activator receptor system recovers STZ‐induced diabetic nephropathy” (Journal of Cellular and Molecular Medicine, 2018).
Like-named read-outs stand apart in the source and are kept apart here. Non-standard residues stand in square brackets, D forms with d. Residues, ends and D or L forms follow the SMILES beside them. αMeF = C[C@](N)(Cc1ccccc1)C(=O)O; Aib = CC(C)(N)C(=O)O

Tests used:
in vivo [1] = conditions: male, Sprague-Dawley, rat, sc, 20 mg/kg
Method: (§1) Four weeks after diabetes induction, three control or three STZ rats were used for the pharmacokinetics (PK) and the tissue distribution study. To this aim, rats received a single dose of UPARANT succinate dissolved in PBS (vehicle) at 20 mg/kg via subcutaneous injection according to a previous study.22 To investigate a possible therapeutic role of UPARANT, the drug was administered at 1 or 8 mg/kg daily for 5 days in 15 rats for each concentration used. […] Rats were killed with 65 mg/kg pentobarbital. Blood was collected in EDTA tubes to then isolate plasma by centrifugation and kidneys were removed.
(§2) PK and UPARANT tissue distribution were as previously described.21 Briefly, for plasma PK, a volume of 0.2 mL blood was extracted at fixed time intervals (0.25, 0.5, 1, 2, 4, 6, 8, 12, 16 and 24 hours after dose) from the femoral vein. Blood was centrifuged (12 000 g for 20 minutes) and plasma was treated with 1% formic acid in methanol. Samples were stored at −80°C. The animals used for the PK study were killed at 24 hours. Kidneys and livers were dissected and processed with 1% formic acid in methanol. The concentration of UPARANT was evaluated via LC‐MS/MS.

in vivo [2] = conditions: male, Sprague-Dawley, rat, sc, 20 mg/kg; remark: listed apart in the source
Method: (§3) Four weeks after diabetes induction, three control or three STZ rats were used for the pharmacokinetics (PK) and the tissue distribution study. To this aim, rats received a single dose of UPARANT succinate dissolved in PBS (vehicle) at 20 mg/kg via subcutaneous injection according to a previous study.22 To investigate a possible therapeutic role of UPARANT, the drug was administered at 1 or 8 mg/kg daily for 5 days in 15 rats for each concentration used.
(§4) PK and UPARANT tissue distribution were as previously described.21 Briefly, for plasma PK, a volume of 0.2 mL blood was extracted at fixed time intervals (0.25, 0.5, 1, 2, 4, 6, 8, 12, 16 and 24 hours after dose) from the femoral vein. Blood was centrifuged (12 000 g for 20 minutes) and plasma was treated with 1% formic acid in methanol. Samples were stored at −80°C. The animals used for the PK study were killed at 24 hours. […] The concentration of UPARANT was evaluated via LC‐MS/MS.
(§5) A two phase model equation Ct = C0(e^-kelim^ t-e^-kabs^ t) with first order kinetics (absorption and elimination) was used to evaluate the kinetic parameters. Both C0 corresponding to the plasma concentration extrapolated at t=0 from the elimination phase and kelim and kabs, elimination and absorption kinetic parameters, were determined by best fit to the equation of the averaged time point concentrations. The terminal half-life t1/2 corresponding to 0.693/kelim and time tmax at the maximum plasma concentration Cmax were determined from the first derivative equal zero of the kinetic equation. The AUCinf, area under the concentration curve versus time from 0 to infinity was calculated by the integral of the kinetic equation.

[3] = male, Sprague-Dawley, rat, in vivo, sc, 20 mg/kg, 24 h
Method: as §1, §2

[4] = rat, in vivo, sc, 20 mg/kg
Method: as §3, §4, §5

CC(=O)N[C@@H](CCCNC(=N)N)C(=O)NC(C)(C)C(=O)N[C@@H](CCCNC(=N)N)C(=O)N[C@@](C)(Cc1ccccc1)C(N)=O [UPARANT, Ac‐L‐Arg‐Aib‐L‐Arg‐L‐Cα(Me)PheNH2] (Ac-R[Aib]R[αMeF]-NH2)
tissue level at time at 24 h (in vivo [1]; concentration of UPARANT in the kidney): 45900 ± 3600 ng/g | tissue level at time at 24 h (in vivo [1]; concentration of UPARANT in the liver): 21100 ± 2400 ng/g | half-life (in vivo [2]): 2.2 h | AUC(0-inf) (in vivo [2]; AUCinf): 15900 ng·h/mL | Cmax (in vivo [2]; Cmax): 2600 ng/mL | tmax (in vivo [2]; tmax): 2.3 h | concentration of UPARANT in the kidney [3]: 28.2 ± 4.3 µg/g | concentration of UPARANT in the liver [3]: 20.4 ± 7.5 µg/g | AUCinf ([4]; male, Sprague-Dawley): 16100 ng·h/mL | Cmax ([4]; male, Sprague-Dawley): 2300 ng/mL | tmax ([4]; male, Sprague-Dawley): 2.2 h | kabs [4]: 0.6 ± 0.2 h⁻¹ | t1/2 [4]: 2.2 h
